Assay results: PubChem BioAssay (NCI)
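Compound exposure: 48 hours, 5 concentrations, 96-well plates. TGI: concentration producing complete growth inhibition.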

These compounds were tested on HS 578T breast (assay: growth of human tumour cells (NCI), 48 h).

Compared with `N#CC(NNC(=O)Cc1ccccc1)c1c(O)ccc2ccccc12` (stereo unspecified), `O=c1cc(-c2ccc(F)cc2)[nH]c2ncc(Cl)cc12` is 1.7-fold higher in TGI: 50.5 µM for the first, 85 µM for the second.

These compounds were tested on TK-10 renal (assay: growth of human tumour cells (NCI), 48 h).

First: O=C(Cc1ccccc1)NN1C(=O)C(Cl)C1c1cc(Br)ccc1O (stereo unspecified)
Second: N#CC(NNC(=O)Cc1ccccc1)c1c(O)ccc2ccccc12 (stereo unspecified)
The TGI of the first is higher: > 100 µM for the first, 80.4 µM for the second.

`Cc1cc(Cl)ccc1N=C1NC(=O)C(CC(=O)Nc2ccc([N+](=O)[O-])cc2[N+](=O)[O-])S1` (stereo unspecified) and `O=c1cc(-c2ccc(F)cc2)[nH]c2ncc(Cl)cc12` cannot be ordered by TGI: > 100 µM for the first, > 100 µM for the second.

`COc1cc(C2C(Cl)C(=O)N2NC(=O)c2ccc(NC(C)=O)cc2)cc(OC)c1OC` (stereo unspecified) and `Cc1ccn2c(c1)nc1nc3ccccc3nc12` cannot be ordered by TGI: > 100 µM for the first, > 100 µM for the second.

For `COC1C=CC(O)C(CO)O1` (stereo unspecified), the TGI was > 100 µM.

Each compound was assayed on EKVX NSCLC (assay: growth of human tumour cells (NCI), 48 h).

First: O=C(Cc1ccccc1)NN1C(=O)C(Cl)C1c1cc(Br)ccc1O (stereo unspecified)
Second: N#CC(NNC(=O)Cc1ccccc1)c1c(O)ccc2ccccc12 (stereo unspecified)
The TGI of the first is 2.7-fold lower: 23.9 µM for the first, 65.6 µM for the second.

`Cc1cc(Cl)ccc1N=C1NC(=O)C(CC(=O)Nc2ccc([N+](=O)[O-])cc2[N+](=O)[O-])S1` (stereo unspecified) and `O=c1cc(-c2ccc(F)cc2)[nH]c2ncc(Cl)cc12` cannot be ordered by TGI: > 100 µM for the first, > 100 µM for the second.

`Cc1ccn2c(c1)nc1nc3ccccc3nc12` and `COC1C=CC(O)C(CO)O1` (stereo unspecified) cannot be ordered by TGI: > 100 µM for the first, > 100 µM for the second.

The compounds below were run on M14 melanoma (assay: growth of human tumour cells (NCI), 48 h).

`O=C(Cc1ccccc1)NN1C(=O)C(Cl)C1c1cc(Br)ccc1O` (stereo unspecified) and `N#CC(NNC(=O)Cc1ccccc1)c1c(O)ccc2ccccc12` (stereo unspecified) are within 1.5-fold of each other in TGI: 19 µM for the first, 21.1 µM for the second.

Going from `Cc1cc(Cl)ccc1N=C1NC(=O)C(CC(=O)Nc2ccc([N+](=O)[O-])cc2[N+](=O)[O-])S1` (stereo unspecified) to `O=c1cc(-c2ccc(F)cc2)[nH]c2ncc(Cl)cc12`, the TGI rises from 59.8 µM to > 100 µM.

`Cc1ccn2c(c1)nc1nc3ccccc3nc12` and `COC1C=CC(O)C(CO)O1` (stereo unspecified) cannot be ordered by TGI: > 100 µM for the first, > 100 µM for the second.

What follows are compounds tested on SNB-75 CNS (assay: growth of human tumour cells (NCI), 48 h).

`O=C(Cc1ccccc1)NN1C(=O)C(Cl)C1c1cc(Br)ccc1O` (stereo unspecified) and `N#CC(NNC(=O)Cc1ccccc1)c1c(O)ccc2ccccc12` (stereo unspecified) are within 1.5-fold of each other in TGI: 34.4 µM for the first, 45 µM for the second.

`Cc1cc(Cl)ccc1N=C1NC(=O)C(CC(=O)Nc2ccc([N+](=O)[O-])cc2[N+](=O)[O-])S1` (stereo unspecified) and `O=c1cc(-c2ccc(F)cc2)[nH]c2ncc(Cl)cc12` are within 1.5-fold of each other in TGI: 44.2 µM for the first, 48.7 µM for the second.

`COc1cc(C2C(Cl)C(=O)N2NC(=O)c2ccc(NC(C)=O)cc2)cc(OC)c1OC` (stereo unspecified) and `Cc1ccn2c(c1)nc1nc3ccccc3nc12` cannot be ordered by TGI: > 100 µM for the first, > 100 µM for the second.

With `COC1C=CC(O)C(CO)O1` (stereo unspecified) the TGI was > 100 µM.

Each compound was assayed on MCF7 breast (assay: growth of human tumour cells (NCI), 48 h).

First: N#CC(NNC(=O)Cc1ccccc1)c1c(O)ccc2ccccc12 (stereo unspecified)
Second: O=c1cc(-c2ccc(F)cc2)[nH]c2ncc(Cl)cc12
The TGI of the first is lower: 14.3 µM for the first, > 100 µM for the second.

These compounds were tested on DMS 114 small cell lung (assay: growth of human tumour cells (NCI), 48 h).

Going from `O=C(Cc1ccccc1)NN1C(=O)C(Cl)C1c1cc(Br)ccc1O` (stereo unspecified) to `N#CC(NNC(=O)Cc1ccccc1)c1c(O)ccc2ccccc12` (stereo unspecified), the TGI falls from 8.77 µM to 5.38 µM (1.6-fold).

First: Cc1cc(Cl)ccc1N=C1NC(=O)C(CC(=O)Nc2ccc([N+](=O)[O-])cc2[N+](=O)[O-])S1 (stereo unspecified)
Second: Cc1ccn2c(c1)nc1nc3ccccc3nc12
The TGI of the first is lower: 49.9 µM for the first, > 100 µM for the second.

What follows are compounds tested on UACC-62 melanoma (assay: growth of human tumour cells (NCI), 48 h).

First: O=C(Cc1ccccc1)NN1C(=O)C(Cl)C1c1cc(Br)ccc1O (stereo unspecified)
Second: N#CC(NNC(=O)Cc1ccccc1)c1c(O)ccc2ccccc12 (stereo unspecified)
The TGI of the first is 2.6-fold higher: 30.7 µM for the first, 12 µM for the second.

Going from `Cc1cc(Cl)ccc1N=C1NC(=O)C(CC(=O)Nc2ccc([N+](=O)[O-])cc2[N+](=O)[O-])S1` (stereo unspecified) to `O=c1cc(-c2ccc(F)cc2)[nH]c2ncc(Cl)cc12`, the TGI rises from 64.7 µM to > 100 µM.

`COc1cc(C2C(Cl)C(=O)N2NC(=O)c2ccc(NC(C)=O)cc2)cc(OC)c1OC` (stereo unspecified) and `Cc1ccn2c(c1)nc1nc3ccccc3nc12` cannot be ordered by TGI: > 100 µM for the first, > 100 µM for the second.

With `COC1C=CC(O)C(CO)O1` (stereo unspecified) the TGI was > 100 µM.

The compounds below were run on OVCAR-8 ovarian (assay: growth of human tumour cells (NCI), 48 h).

`O=C(Cc1ccccc1)NN1C(=O)C(Cl)C1c1cc(Br)ccc1O` (stereo unspecified) and `N#CC(NNC(=O)Cc1ccccc1)c1c(O)ccc2ccccc12` (stereo unspecified) are within 1.5-fold of each other in TGI: 69.2 µM for the first, 52.2 µM for the second.

`Cc1cc(Cl)ccc1N=C1NC(=O)C(CC(=O)Nc2ccc([N+](=O)[O-])cc2[N+](=O)[O-])S1` (stereo unspecified) and `O=c1cc(-c2ccc(F)cc2)[nH]c2ncc(Cl)cc12` cannot be ordered by TGI: > 100 µM for the first, > 100 µM for the second.

`Cc1ccn2c(c1)nc1nc3ccccc3nc12` and `COC1C=CC(O)C(CO)O1` (stereo unspecified) cannot be ordered by TGI: > 100 µM for the first, > 100 µM for the second.

What follows are compounds tested on COLO 205 colon (assay: growth of human tumour cells (NCI), 48 h).

`O=C(Cc1ccccc1)NN1C(=O)C(Cl)C1c1cc(Br)ccc1O` (stereo unspecified) and `N#CC(NNC(=O)Cc1ccccc1)c1c(O)ccc2ccccc12` (stereo unspecified) cannot be ordered by TGI: > 100 µM for the first, > 80.5 µM for the second.

`Cc1cc(Cl)ccc1N=C1NC(=O)C(CC(=O)Nc2ccc([N+](=O)[O-])cc2[N+](=O)[O-])S1` (stereo unspecified) and `O=c1cc(-c2ccc(F)cc2)[nH]c2ncc(Cl)cc12` cannot be ordered by TGI: > 100 µM for the first, > 100 µM for the second.

`COc1cc(C2C(Cl)C(=O)N2NC(=O)c2ccc(NC(C)=O)cc2)cc(OC)c1OC` (stereo unspecified) and `Cc1ccn2c(c1)nc1nc3ccccc3nc12` cannot be ordered by TGI: > 100 µM for the first, > 100 µM for the second.

These compounds were tested on HOP-18 NSCLC (assay: growth of human tumour cells (NCI), 48 h).

Going from `O=C(Cc1ccccc1)NN1C(=O)C(Cl)C1c1cc(Br)ccc1O` (stereo unspecified) to `N#CC(NNC(=O)Cc1ccccc1)c1c(O)ccc2ccccc12` (stereo unspecified), the TGI falls from > 100 µM to 35.4 µM.

With `COc1cc(C2C(Cl)C(=O)N2NC(=O)c2ccc(NC(C)=O)cc2)cc(OC)c1OC` (stereo unspecified) the TGI was > 100 µM.

The compounds below were run on OVCAR-3 ovarian (assay: growth of human tumour cells (NCI), 48 h).

Going from `O=C(Cc1ccccc1)NN1C(=O)C(Cl)C1c1cc(Br)ccc1O` (stereo unspecified) to `N#CC(NNC(=O)Cc1ccccc1)c1c(O)ccc2ccccc12` (stereo unspecified), the TGI falls from > 100 µM to 26.5 µM.

`Cc1cc(Cl)ccc1N=C1NC(=O)C(CC(=O)Nc2ccc([N+](=O)[O-])cc2[N+](=O)[O-])S1` (stereo unspecified) and `O=c1cc(-c2ccc(F)cc2)[nH]c2ncc(Cl)cc12` cannot be ordered by TGI: 73.8 µM for the first, > 70.5 µM for the second.

`COc1cc(C2C(Cl)C(=O)N2NC(=O)c2ccc(NC(C)=O)cc2)cc(OC)c1OC` (stereo unspecified) and `Cc1ccn2c(c1)nc1nc3ccccc3nc12` cannot be ordered by TGI: > 100 µM for the first, > 100 µM for the second.

With `COC1C=CC(O)C(CO)O1` (stereo unspecified) the TGI was > 100 µM.

The compounds below were run on SK-OV-3 ovarian (assay: growth of human tumour cells (NCI), 48 h).

`O=C(Cc1ccccc1)NN1C(=O)C(Cl)C1c1cc(Br)ccc1O` (stereo unspecified) and `N#CC(NNC(=O)Cc1ccccc1)c1c(O)ccc2ccccc12` (stereo unspecified) are within 1.5-fold of each other in TGI: 39 µM for the first, 31.3 µM for the second.

Compared with `Cc1cc(Cl)ccc1N=C1NC(=O)C(CC(=O)Nc2ccc([N+](=O)[O-])cc2[N+](=O)[O-])S1` (stereo unspecified), `O=c1cc(-c2ccc(F)cc2)[nH]c2ncc(Cl)cc12` is higher in TGI: 55 µM for the first, > 100 µM for the second.

`COc1cc(C2C(Cl)C(=O)N2NC(=O)c2ccc(NC(C)=O)cc2)cc(OC)c1OC` (stereo unspecified) and `Cc1ccn2c(c1)nc1nc3ccccc3nc12` cannot be ordered by TGI: > 100 µM for the first, > 100 µM for the second.

For `COC1C=CC(O)C(CO)O1` (stereo unspecified), the TGI was > 100 µM.

Each compound was assayed on M19-MEL melanoma (assay: growth of human tumour cells (NCI), 48 h).

`O=C(Cc1ccccc1)NN1C(=O)C(Cl)C1c1cc(Br)ccc1O` (stereo unspecified) and `N#CC(NNC(=O)Cc1ccccc1)c1c(O)ccc2ccccc12` (stereo unspecified) are within 1.5-fold of each other in TGI: 23.3 µM for the first, 16.3 µM for the second.

First: Cc1cc(Cl)ccc1N=C1NC(=O)C(CC(=O)Nc2ccc([N+](=O)[O-])cc2[N+](=O)[O-])S1 (stereo unspecified)
Second: COc1cc(C2C(Cl)C(=O)N2NC(=O)c2ccc(NC(C)=O)cc2)cc(OC)c1OC (stereo unspecified)
The TGI of the first is lower: 75.4 µM for the first, > 100 µM for the second.

`Cc1ccn2c(c1)nc1nc3ccccc3nc12` and `COC1C=CC(O)C(CO)O1` (stereo unspecified) cannot be ordered by TGI: > 100 µM for the first, > 100 µM for the second.

These compounds were tested on HCC-2998 colon (assay: growth of human tumour cells (NCI), 48 h).

Going from `O=C(Cc1ccccc1)NN1C(=O)C(Cl)C1c1cc(Br)ccc1O` (stereo unspecified) to `N#CC(NNC(=O)Cc1ccccc1)c1c(O)ccc2ccccc12` (stereo unspecified), the TGI falls from > 100 µM to 45.4 µM.

`Cc1cc(Cl)ccc1N=C1NC(=O)C(CC(=O)Nc2ccc([N+](=O)[O-])cc2[N+](=O)[O-])S1` (stereo unspecified) and `O=c1cc(-c2ccc(F)cc2)[nH]c2ncc(Cl)cc12` cannot be ordered by TGI: > 100 µM for the first, > 100 µM for the second.

For `COC1C=CC(O)C(CO)O1` (stereo unspecified), the TGI was > 100 µM.

Each compound was assayed on NCI-H522 lung (assay: growth of human tumour cells (NCI), 48 h).

Going from `O=C(Cc1ccccc1)NN1C(=O)C(Cl)C1c1cc(Br)ccc1O` (stereo unspecified) to `N#CC(NNC(=O)Cc1ccccc1)c1c(O)ccc2ccccc12` (stereo unspecified), the TGI falls from > 100 µM to 34 µM.

Going from `COc1cc(C2C(Cl)C(=O)N2NC(=O)c2ccc(NC(C)=O)cc2)cc(OC)c1OC` (stereo unspecified) to `O=c1cc(-c2ccc(F)cc2)[nH]c2ncc(Cl)cc12`, the TGI falls from > 100 µM to 80.4 µM.

`Cc1ccn2c(c1)nc1nc3ccccc3nc12` and `COC1C=CC(O)C(CO)O1` (stereo unspecified) cannot be ordered by TGI: > 100 µM for the first, > 100 µM for the second.

These compounds were tested on UACC-257 melanoma (assay: growth of human tumour cells (NCI), 48 h).

First: O=C(Cc1ccccc1)NN1C(=O)C(Cl)C1c1cc(Br)ccc1O (stereo unspecified)
Second: N#CC(NNC(=O)Cc1ccccc1)c1c(O)ccc2ccccc12 (stereo unspecified)
The TGI of the first is higher: > 100 µM for the first, 18.3 µM for the second.

Compared with `Cc1cc(Cl)ccc1N=C1NC(=O)C(CC(=O)Nc2ccc([N+](=O)[O-])cc2[N+](=O)[O-])S1` (stereo unspecified), `COc1cc(C2C(Cl)C(=O)N2NC(=O)c2ccc(NC(C)=O)cc2)cc(OC)c1OC` (stereo unspecified) is higher in TGI: 90.3 µM for the first, > 100 µM for the second.
